These results are taken from patent US20110195924A1, “Methods of Inhibiting the Interaction Between S100P and the Receptor for Advanced Glycation End-Products” (priority 2008, published 2011).

Test [1] has as its system BxPC-3 cells. Put plainly: BxPC-3 matrigel invasion assay. It counts as cell-based. To be noted: 24 hours; for cells invaded, mean: 0 μM 19.3%. How it is done: FIGS. 2A-2D show the effect of cromolyn on pancreatic cancer cell invasion. Panc-1 and BxPC-3 cells were plated in Bio-coat matrigel and control chambers and cultured in serum-free culture media. After 24 hours non-invaded cells in the upper chamber were removed, and cells that invaded onto the lower surface of the membrane were counted from five adjacent fields. […] Data are expressed as the percent invasion through the matrigel matrix and membrane relative to migration through the control membrane. Means and 95% confidence intervals from three independent experiments performed in triplicate are shown. Two-tailed two-sample (unpaired) Student's t-tests were used to determine P values. Panc-1 and BxPC-3 cells were seeded in BIOCOAT matrigel invasion chambers and in control chambers without matrigel (Becton-Dickinson, Bedford, Mass.) according to the manufacturer's protocol. Panc-1 cells were seeded with S100P (100 nM) with or without cromolyn (100 μM), and BxPC-3 cells were seeded with or without cromolyn (1-100 μM). Briefly, 2.0×10^5 cells in 300 μL top solution (serum-free media) were added to each chamber and allowed to invade matrigel for 24 hours at 37° C. in a 5% CO2 atmosphere. The non-invading cells on the upper surface of membrane were removed from the chambers with a cotton swab, and the invading cells on the lower surface of the membrane were fixed and stained using a Diff-Quick stain kit (Becton Dickinson, Bedford, Mass.). After two washes with water, the chambers were allowed to air dry. The numbers of invading cells in five adjacent microscope fields per membrane were counted at 20× magnification to obtain the average number of cells per field. Data are expressed as the percent invasion through the matrigel matrix and membrane relative to the migration through the control membrane. The assays were performed three times.

Test [2] has as its system NFκB promoter activity. Put plainly: NFκB luciferase activity in vivo, orthotopic BxPC-3 tumors. More on the design: species or system mice. How it is done:
FIGS. 3A, 3B, and 3C show the effect of cromolyn on S100P stimulated NFκB promoter activity in pancreatic cancer cells in vitro and in vivo. Panc-1 and BxPC-3 pancreatic cancer cell lines stably expressing an NFκB luciferase reporter were examined for the effects of S100P and cromolyn. […] Means and 95% confidence intervals are shown for three independent experiments performed in triplicate. *, P=0.022, †, P<0.001, and P<0.001 versus control; #, P=0.005 versus 100 nM S100P alone. […] Means and 95% confidence intervals are shown for three independent experiments performed in triplicate. *, P=0.003, †, P<0.001 versus control. […] After 1 week, tumor growth was assessed and NFκB activity was analyzed using an IVIS system (Xenogen Corp., Alameda, Calif.) after injecting mice with D-luciferin (150 mg per kg body weight) (0 time point). The mice were treated with cromolyn (5 mg per kg body weight by intraperitoneal injection), and NFκB luciferase activity was analyzed again at 24 and 48 hours. *, P=0.005 versus control. Means and 95% confidence intervals are shown for two independent experiments (n=4 mice per group). Two-tailed two-sample (unpaired for in vitro and paired for in vivo studies) Student's t-tests were used to determine P values. To measure NFκB promoter activity in vivo, BxPC-3 cells (50,000/50 μL) stably expressing a Lenti-NFkB-luc reporter were transplanted orthotopically into the pancreas of 4-week-old male CB17 scid mice (n=4 mice per experiment). After 1 week mice were injected with D-luciferin (150 mg per kg body weight, i.p.), and basal NFκB activity was determined using the IVIS system. Subsequently, mice were injected with cromolyn (5 mg per kg body weight, i.p.), and NFκB luciferase activity was re-analyzed after 24 and 48 hours. These experiments were performed three times. To determine whether cromolyn treatment could also reduce NFκB activity in vivo, NFκB activity of BxPC-3 cells stably expressing an NFκB luciferase reporter construct that had been transplanted orthotopically into the pancreas of […] (n=4) was examined. After 1 week, NFκB luciferase activity was determined before (0 time point) and at 24 and 48 hours after a single dose of cromolyn (5 mg per kg body weight by intraperitoneal [i.p.] injection). Cromolyn administration reduced basal NFκB activity by at least 80% 24 hours after injection (0 h, mean=9.9×10^6 versus 24 h, mean=1.3×10^6 photons/sec, difference=8.6×10^6 photons/sec, 95% CI=3.1×10^6 to 1.4×10^7 photons/sec; P=0.005, FIG. 3C).

Test [3] relates to NFκB activity. Put plainly: S100P stimulated NFκB luciferase reporter in MPanc-96 cells. The test is classed as cell-based, Human. The note with it: S100P 100 nM, compound 1 μM, 5 hours. Here is the method: MPanc-96 pancreatic cancer cell lines stably expressing an NFκB luciferase reporter were examined for the effects of S100P, cromolyn and C5. Cells were plated at 5.0×10^3 cells/well, treated for 5 hours with 100 nM of S100P, with or without cromolyn and C5 (1 μM), and activity of a luciferase gene driven by the NFkB promoter was analyzed. P=0.05 C5 versus cromolyn. Two-tailed two-sample (unpaired) Student's t-tests were used to determine P values.
Background: A reporter such as luciferase makes a cellular process visible.

Test [4] concerns BxPC-3 cells. Put plainly: BxPC-3 cell viability, alone or with gemcitabine. It counts as cell-based. The note with it: 72 hours. Here is the method: BxPC-3 cells were plated at 1.0×10^3 cells/well and treated with 0 μM, 1 μM, 10 μM, and 100 μM of cromolyn or C5 alone or in combination with gemcitabine 1 μM and cell viability was analyzed after 72 hours. Two-tailed two-sample (unpaired) Student's t-tests were used to determine P values. […] BxPC-3 cells were plated at 1.0×10^3 cells/well and treated with either 100 μM of cromolyn or 1 μM C5 alone or in combination with gemcitabine (1 μM) and cell viability was analyzed after 72 hours.

Test [5] deals with SKOV3 ovarian cells. Put plainly: SKOV3 ovarian cell viability with taxol. The note with it: taxol 5 μM, cromolyn 10 μM, 48 hours. It counts as cell-based. How it is done: SKOV3 ovarian cells were plated and treated with taxol (5 μM) either in the presence or absence of cromolyn (10 μM) for 48 hours. Cell viability was analyzed after 48 hours. *, P<0.05.
In test [6] the test system is PC3 prostate cells. Put plainly: PC3 prostate cell viability with taxol. To be noted: taxol 100 nM, cromolyn 10 μM, 48 hours. The test is classed as cell-based. Here is the method: PC3 prostate cells were plated and treated with taxol (100 nM) either in the presence or absence of cromolyn (10 μM) for 48 hours. Cell viability was analyzed after 48 hours. *, P<0.05.

The subject of test [7] is SW480 colon cells. Put plainly: SW480 colon cell proliferation. The test is classed as cell-based. The note with it: cromolyn 100 μM, up to three days. How it is done: SW480 colon cells were cultured for up to three days in the presence of cromolyn (100 μM), and cell proliferation was analyzed. *, P<0.05.

With `O=C(O)c1cc(=O)c2c(OCC(O)COc3cccc4oc(C(=O)O)cc(=O)c34)cccc2o1` [cromolyn, disodium 1,3-bis[(2′-carboxylatochromon-5′-yl)oxy]-2-hydroxypropane], in test [1] (cromolyn 10 μM), the “cells invaded, difference versus 0 μM” value amounted to 10.0% and the “cells invaded, mean” value was found to be 9.3%. In test [1] (cromolyn 100 μM), the “cells invaded, difference versus 0 μM” value came out at 11.7% and the “cells invaded, mean” value worked out at 7.7%. In addition, the “NFκB luciferase activity, difference 0 h versus 24 h” value in test [2] (cromolyn 5 mg per kg i.p., 24 h) was 8.6×10^6 photons/sec. Also, the “NFκB luciferase activity, mean” value in test [2] (cromolyn 5 mg per kg i.p., 24 h, 0 h mean 9.9×10^6) is 1.3×10^6 photons/sec. Also, the NFκB activity entry in test [2] (cromolyn 5 mg per kg i.p., 48 hours after injection) is recorded as “returned to control levels”. The “reduction of basal NFκB activity” value in test [2] (single dose cromolyn 5 mg per kg i.p., 24 hours after injection) is given as “at least 80%”. The “NFκB activity in pancreatic cancer cells in vitro” value in test [3] was “inhibit”. The “concentration giving the same level of cell reduction in combination with gemcitabine” value in test [4] (BxPC-3, gemcitabine 1 μM, FIG. 10) was determined as 100 µM. Besides, in test [4] (alone and in conjunction with gemcitabine 1 μM), the BxPC-3 cell viability result is reported as “inhibit”. Moreover, the “cell killing effect of taxol on ovarian cancer cells” value in test [5] is “increased the cell killing effect of taxol”. In addition, in test [6], the “cell killing effect of taxol on prostate cancer cells” value is reported as “increased the cell killing effect of taxol”. Besides, the “growth of SW480 cells” value in test [7] is “reduced growth”.
